For test [1], the target named is T1, S100A9 (Homo sapiens, UniProt P06702).
T1 sequence (P06702 1-114): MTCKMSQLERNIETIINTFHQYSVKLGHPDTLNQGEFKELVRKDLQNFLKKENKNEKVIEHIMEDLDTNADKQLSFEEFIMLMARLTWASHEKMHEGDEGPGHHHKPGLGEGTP
Description: TLR4-S100A9 ELISA: blocking of S100A9 binding to TLR4/MD2. To be noted: S100A9 2 μg/ml, 100 μM CES271-Cy5.5, two hours at room temperature. The procedure: FIG. 5: ELISA-based blocking study showing binding of S100A9 protein to TLR4/MD2 in the presence or absence of quinoline-3-carboxamide compounds covalently linked to a label, in this case Cy5.5-CES271.
Cy5.5-CES271 was successfully synthesized as described in the previous example. Studies were then conducted to verify that Cy5.5-CES271 maintained strong binding affinity for S100A9. In this regard, a specific ELISA (Enyme-linked Immunosorbent Assay) was developed to analyse S100A9 binding to TLR4. In this newly developed assay, the binding of S100A9 to TLR4 can be measured.
Briefly, TLR4/MD2 (3146-TM-050/CF, R&D Systems) was coupled to the wells of a 96-well plate and served as capturing molecule. After blocking of the unspecific binding sites by PBS/5% skim milk powder, plates were washed three times. S100A9 protein was added at a concentration of 2 μg/ml in the presence or absence of 100 μM CES271-Cy5.5 and incubated for two hours at room temperature. Unbound S100 protein was removed by washing the plates for three times, followed by the addition of a primary anti-S100A9-antibody (1 μg/ml, polyclonal, rabbit). After a washing step, the secondary anti-rabbit-IgG-antibody coupled to HRP (1 μg/ml, Cell Signalling) was added. TMB was used as substrate for HRP to quantify binding efficiency by absorbance readings at 450 nm in an ELISA reader (Anthos Mikrosysteme).

Test [2] addresses T1, S100A9. Description: Binding constant to coated S100A9 by fluorimetric measurement (one site saturation model). To be noted: human S100A9 homodimer coated, 1 h at 4° C. The protocol:
(§1) FIG. 15: Binding of Cy5.5-CES271 to human and murine S100A9. Estimation of the binding constant of Cy5.5-CES271 to human (A) and murine (B) S100A9. The constant was calculated using the one site saturation regression model. Each dot represents the mean value of four independent experiments.
(§2) The binding constant of Cy5.5-CES271 to murine and human S100A9 was determined by fluorimetric measurements. 0.3788 μM S100A9 (5 μg ml^−1 of homodimer S100A9) solved in 50 μl PBS was coated to the bottom of a 96-well plate and served as capturing molecule. For each S100A9 coated well a control well was used with 50 μl PBS alone. After a washing step, unspecific binding sites were blocked by PBS/5% skim milk powder. Cy5.5-CES271 was added at increasing concentrations. After 1 h incubation at 4° C., the supernatants were removed and the fluorescence intensity was measured with a fluorimeter. Non-linear regression analysis was performed with a one site saturation model, to calculate the binding constant of Cy5.5-CES271 to either murine or human S100A9. […] A strong binding affinity of the tracer to S100A9 could be observed that is not affected by the attachment of Cy5.5 to CES271.

In test [3] the target is T2, murine S100A9 (Mus musculus, UniProt P31725).
T2 sequence (P31725 1-113): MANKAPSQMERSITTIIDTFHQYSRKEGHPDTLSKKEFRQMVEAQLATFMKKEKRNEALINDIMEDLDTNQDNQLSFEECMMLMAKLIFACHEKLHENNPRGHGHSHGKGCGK
The test is described as above. The conditions noted are these: murine S100A9 homodimer coated, 1 h at 4° C. The procedure: as §1, §2

The target in test [4] is T3, S100A9 (Mus musculus, UniProt P31725).
T3 construct: from tissue; host or cells: living mice (inflamed ear, joints) and explanted mouse heart, aorta and lungs
T3 sequence (P31725 2-113 limits assumed): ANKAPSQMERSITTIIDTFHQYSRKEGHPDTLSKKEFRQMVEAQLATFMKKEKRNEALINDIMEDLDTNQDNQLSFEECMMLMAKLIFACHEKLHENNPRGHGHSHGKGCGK
The test is described as follows: Atherosclerosis mouse model (HypoE, HFC diet), FRI of the explanted aorta. The format is in vivo, SR-BI−/−/apoER61h/h mice (HypoE). To be noted: 10 days HFC diet, 2 h p.i. The procedure: FIG. 8: Accumulation of Cy5.5-CES271 in a mouse model of atherosclerosis in a HypoE mouse, 10 days on HFC diet.
Atherosclerosis is an inflammatory disease of the vessel wall. SR-BI^−/−/apoE^R61 h/h-mice (HypoE) are known to develop atherosclerotic lesions especially when set on a high fat and high choleresterol diet (HFC). Typical predeliction site is the aortic arch. 12-14 week old mice were set on HFC diet for 10 days. At day 10 of HFC diet Cy5.5-CES271 was injected i.v., the mice were sacrificed two hours p.i., the aortic arches were explanted, and measured ex-vivo by FRI.
The hearts and aorta were fixed overnight in 4% paraformaldehyde and embedded in paraffin. Sections measuring 4 μm in thickness were analyzed. For immunohistochemistry, paraffin skin sections (4 μm) were dewaxed, blocked with 10% fetal bovine serum, and incubated with rabbit anti-S100A9 or MAC-3 antibodies for 1 h at room temperature followed by a goat-anti-rabbit biotinylated antibody and 3,3′ diaminobenzidine (DAB).

Take “3-ethyl-2((1E,3E,5E)-5-(3-(1-(5-ethyl-4-hydroxy-1-methyl-2-oxo-1,2-dihydroquinolin-3-yl)-1,15-dioxo-2-phenyl-5,8,11-trioxa-2,14-diazanonadecan-19-yl)-1,1-dimethyl-6,8-disulfonato-1H-benzo[e]indol-2(3H)-ylidene)penta-1,3-dien-1-yl)-1,1-dimethyl-1H-benzo[e]indol-3-ium-6,8-disulfonate [Cy5.5-CES271]”: in test [1], the “Blocking of binding of S100A9 to TLR4/MD2 (decrease of ELISA signal, absorbance 450 nm)” value is recorded as “markedly block”. The Kd in test [2] came to 2060 nM; in test [3] it was 2660 nM. The “Accumulation in plaque lesions of the explanted aorta” value in test [4] is “accumulation”.

For the origin of these results see patent US10350315B2, “Quinoline-3-carboxamide compounds and their use in diagnosis” (Westfaelische Wihelms-Universitaet Muenster, priority 2014, dated 2019).
